# Structures can show the parent of a compound that is named as a salt.
# Legend:
# [1] = tested on: ME110 cells derived from a patient with MELAS; test: Oxidative stress test (BSO-induced cell death), ME110 cells; type: cell-based, human; settings: BSO plus agent 1 μM, 48 hours after addition
# Source text: (§1) In mitochondrial dysfunction, for example, ATP production is damaged and/or oxidative stress increases, with the result that apoptosis of cells is induced. Because of this, individuals having mitochondrial dysfunction are reported to be less tolerant to oxidative stress, compared to normal individuals (Shrader W D et al., Bioorg Med Chem Lett., Jun. 15, 2011, Vol. 21 (12), p. 3693-8, doi: 10.1016/j.bmc1.2011.04.085. electronically published on Apr. 24, 2011, PubMed PMID: 21600768). Then, oxidative stress was given to the skin fibroblasts of individual patients mentioned above to induce apoptosis. Under the conditions, compounds of the drug library were each administered to the cells. In this manner, a primary screening was carried out. Then, candidate pharmaceutical agents selected by the primary screening were subjected to a secondary screening, which is an in-vitro evaluation test such as a mitochondrial function evaluation test and a microarray expression analysis.
# (§2) The oxidative stress test is a known pharmaceutical agent screening method, which was carried out under the conditions where cell death was induced by addition of L-buthionine-(S,R)-sulfoximine (BSO) (Arce P M et al., ACS Med Chem Lett., May 31, 2011, Vol. 2 (8), p. 608-13, doi: 10.1021/m1200095w. eCollection, Aug. 11, 2011, PubMed PMID: 24900356; PubMed Central PMCID: PMC4018135). BSO inhibits synthesis of glutathione serving as an antioxidant in the cells to deplete glutathione, raising the level of active oxygen within the cells. The procedure of the test is as follows. The cells to be used in the test were seeded in a 96-well plate for cell culture so as to satisfy a concentration of 5,000 cells/well and 80 μL medium/well and cultured in a CO2 incubator (37° C., 5% CO2) for 24 hours. Twenty four hours after the culture, BSO and each of the pharmaceutical agents (final concentration of 1 μM) of the drug library were together added to the cells within the wells. Forty eight hours after the addition, survival rates were determined. The survival rates were determined by measuring absorbance of formazan generated by use of cell count reagent SF (Nacalai Tesque, Inc.). As a positive control compound, idebenone (Non Patent Literature 1) approved as a therapeutic agent for Leber's hereditary optic neuritis in Europe, was used in the same concentration.
# (§3) An oxidative stress test was carried out by using three fibroblast cell lines derived from patients with a mitochondrial disease and provided in 1-2. The pharmaceutical agent showing the survival rate equal to or more than that of idebenone, a positive control compound, was determined to be effective. The results of oxidative stress test of pharmaceutical agents of the drug library to KCMC10 cells are shown in FIG. 2; the results of oxidative stress test of pharmaceutical agents of the drug library to ME54 cells are shown in FIG. 3; and the results of oxidative stress test of pharmaceutical agents of the drug library to ME110 cells are shown in FIG. 4.
# [2] = tested on: KCMC10 cells derived from a patient with Leigh syndrome; test: Oxidative stress test (BSO-induced cell death), KCMC10 cells; type: cell-based, human; settings: BSO plus agent 1 μM, 48 hours after addition
# Source text: as §1, §2, §3
# [3] = tested on: ME54 cells derived from a patient with Leigh syndrome; test: Oxidative stress test (BSO-induced cell death), ME54 cells; type: cell-based, human; settings: BSO plus agent 1 μM, 48 hours after addition
# Source text: as §1, §2, §3
# ME110 cells = test: Evaluation test for mitochondrial function (extracellular flux analyzer, OCR), ME110 cells; type: cell-based, human; settings: 10 nM, 24 hours after addition, vs DMSO control
# Experimental: (§4) An evaluation test for mitochondrial function including ATP production (capacity) was carried out by using an extracellular flux analyzer (XFe96, Primetech Corporation). Mitochondrial function can be evaluated by continuously measuring the oxygen consumption rate (OCR) of mitochondria during ATP synthesis by use of the extracellular flux analyzer while adding ATP synthase inhibitors (oligomycin, rotenone and antimycin A) and an uncoupler (carbonyl cyanide-p-trifluoromethoxy phenylhydrazone (FCCP)). The evaluation items to be analyzed were basal respiratory volume, ATP production (capacity) and maximum respiratory volume, which are major indexes for evaluating mitochondrial function. The test procedure is as follows. The cells to be used in the test were seeded in a 96-well plate for cell culture so as to satisfy a concentration of 20,000 cells/well and 80 μL medium/well and cultured in a CO2 incubator (37° C., 5% CO2) for 24 hours. Twenty four hours after the culture, each of the pharmaceutical agents (final concentration of 1,000, 100 or 10 nM) of the drug library or the same amount of dimethyl sulfoxide (DMSO) as a control was added to the cells within wells. Twenty minutes after the addition of the pharmaceutical agent, oligomycin (final concentration of 2 μM) was added. Fifty minutes after the addition of the pharmaceutical agent, FCCP (final concentration of 2 μM) was added. Eighty minutes after the addition of the pharmaceutical agent, rotenone and antimycin A (final concentration of 0.5 μM) were sequentially added. The oxygen consumption rate (OCR) was measured with time. Based on the measurement results 24 hours after the addition of the pharmaceutical agents of the drug library, basal respiratory volume, ATP production (capacity) and maximum respiratory volume were evaluated.
# (§5) Reference symbols of ** and ***, which represent p values relative to the control (DMSO) calculated by Student's t-test, show […], respectively.
# KCMC10 cells = test: Evaluation test for mitochondrial function (extracellular flux analyzer, OCR), KCMC10 cells; type: cell-based, human; settings: 10 to 100 nM, 24 hours after addition, vs DMSO control
# Experimental: as §4, §5
# [4] = stated as known; cited from earlier work
# [5] = tested on: KCMC10 cells derived from patients with Leigh syndrome; test: Microarray expression analysis
# Experimental: Expression analysis by a microarray was carried out by use of SurePrint G3 Human Gene Expression 8×60K v3 of Agilent Technologies, Inc. To KCMC10 cells derived from patients with Leigh syndrome, BSO was added, to prepare a group of patients provided with oxidative stress. To the cells, BSO and each of the candidate pharmaceutical agents selected from the drug library were both added to prepare another group. In this manner, two samples per each group were prepared. RNA was extracted from each of the samples and subjected to expression analysis by a microarray.
# In the tables, the value of Log 2 ratio between the two groups of 1 means that expression ratios differ twice, the value of Log 2 ratio of 2 means 4 times difference and the value of Log 2 ratio of 3 means 8 times difference.
# [6] = KCMC10, BSO/agent vs BSO, Inflammatory cytokine
# [7] = KCMC10, BSO/agent vs BSO, JAK-STAT signal pathway
# [8] = KCMC10, BSO/agent vs BSO, Lymphocytic tissue homing receptor
# [9] = KCMC10, BSO/agent vs BSO, MARK signal pathway
# [10] = KCMC10, BSO/agent vs BSO, Proinflammatory effect
# [11] = KCMC10, BSO/agent vs BSO, Table 4
# [12] = KCMC10, BSO/agent vs BSO, WNT signal pathway
# [13] = KCMC10, BSO/agent vs BSO, mTOR signal pathway
# [14] = KCMC10 cells, BSO/agent addition group vs BSO addition group
smiles,measurement,setting,value
"Cc1cc2c(s1)Nc1ccccc1N=C2N1CCN(C)CC1 [Pharmaceutical agent No. 118, Olanzapine]",survival rate equal to or more than that of idebenone (determined to be effective),[1],effective
same,survival rate equal to or more than that of idebenone (determined to be effective),[2],effective
same,survival rate equal to or more than that of idebenone (determined to be effective),[3],effective
"CN1CCc2cccc3c2[C@H]1Cc1ccc(O)c(O)c1-3 [Pharmaceutical agent No. 5, R(−)-Apomorphine hydrochloride hemihydrate]",ATP production (capacity),ME110 cells,significantly improved
same,basal respiratory volume,ME110 cells,significantly improved
same,maximum respiratory volume,ME110 cells,significantly improved
same,survival rate equal to or more than that of idebenone (determined to be effective),[1],effective
same,ATP production (capacity),KCMC10 cells,significantly improved
same,basal respiratory volume,KCMC10 cells,significantly improved
same,maximum respiratory volume,KCMC10 cells,significantly improved
same,ability to pass through the blood-brain barrier,[4],known to be able to pass through the blood-brain barrier
same,survival rate equal to or more than that of idebenone (determined to be effective),[2],effective
same,"Expression change (Increase/Decrease), CCL3",[5]; [6],Decrease
same,"Expression change (Increase/Decrease), IL24",[5]; [6],Decrease
same,"Expression change (Increase/Decrease), LIF",[5]; [6],Decrease
same,"Log 2 ratio between two groups, CCL3",[5]; [6],−2.98
same,"Log 2 ratio between two groups, IL24",[5]; [6],−1.77
same,"Log 2 ratio between two groups, LIF",[5]; [6],−3.32
same,"Expression change (Increase/Decrease), BCL2A1",[5]; [7],Decrease
same,"Expression change (Increase/Decrease), FHL1",[5]; [7],Increase
same,"Expression change (Increase/Decrease), IL13RA2",[5]; [7],Decrease
same,"Expression change (Increase/Decrease), SOCS2",[5]; [7],Increase
same,"Expression change (Increase/Decrease), SOSC1",[5]; [7],Decrease
same,"Log 2 ratio between two groups, BCL2A1",[5]; [7],−3.90
same,"Log 2 ratio between two groups, FHL1",[5]; [7],1.01
same,"Log 2 ratio between two groups, IL13RA2",[5]; [7],−1.63
same,"Log 2 ratio between two groups, SOCS2",[5]; [7],1.30
same,"Log 2 ratio between two groups, SOSC1",[5]; [7],−1.21
same,"Expression change (Increase/Decrease), CCL19",[5]; [8],Decrease
same,"Log 2 ratio between two groups, CCL19",[5]; [8],−4.92
same,"Expression change (Increase/Decrease), DUSP6",[5]; [9],Decrease
same,"Log 2 ratio between two groups, DUSP6",[5]; [9],−3.25
same,"Expression change (Increase/Decrease), IL12A",[5]; [10],Decrease
same,"Log 2 ratio between two groups, IL12A",[5]; [10],−2.71
same,"Expression change (Increase/Decrease), CCL7",[5]; [11],Decrease
same,"Expression change (Increase/Decrease), CSF3",[5]; [11],Decrease
same,"Expression change (Increase/Decrease), CXCL2",[5]; [11],Decrease
same,"Expression change (Increase/Decrease), CXCL3",[5]; [11],Decrease
same,"Expression change (Increase/Decrease), CXCL8",[5]; [11],Decrease
same,"Expression change (Increase/Decrease), MMP1",[5]; [11],Decrease
same,"Log 2 ratio between two groups, CCL7",[5]; [11],−2.41
same,"Log 2 ratio between two groups, CSF3",[5]; [11],−5.58
same,"Log 2 ratio between two groups, CXCL2",[5]; [11],−2.68
same,"Log 2 ratio between two groups, CXCL3",[5]; [11],−3.72
same,"Log 2 ratio between two groups, CXCL8",[5]; [11],−4.34
same,"Log 2 ratio between two groups, MMP1",[5]; [11],−1.40
same,"Expression change (Increase/Decrease), DKK4",[5]; [12],Increase
same,"Expression change (Increase/Decrease), FZD8",[5]; [12],Decrease
same,"Expression change (Increase/Decrease), GBP",[5]; [12],Increase
same,"Expression change (Increase/Decrease), LEF1",[5]; [12],Decrease
same,"Expression change (Increase/Decrease), SOST",[5]; [12],Increase
same,"Log 2 ratio between two groups, DKK4",[5]; [12],1.66
same,"Log 2 ratio between two groups, FZD8",[5]; [12],−1.51
same,"Log 2 ratio between two groups, GBP",[5]; [12],2.11
same,"Log 2 ratio between two groups, LEF1",[5]; [12],−1.23
same,"Log 2 ratio between two groups, SOST",[5]; [12],1.70
same,"Expression change (Increase/Decrease), CAB39L",[5]; [13],Decrease
same,"Expression change (Increase/Decrease), DEPTOR",[5]; [13],Increase
same,"Expression change (Increase/Decrease), FECN",[5]; [13],Decrease
same,"Expression change (Increase/Decrease), PRR5",[5]; [13],Increase
same,"Expression change (Increase/Decrease), RNF152",[5]; [13],Decrease
same,"Expression change (Increase/Decrease), RPS6KA1",[5]; [13],Decrease
same,"Expression change (Increase/Decrease), RRAGD",[5]; [13],Decrease
same,"Expression change (Increase/Decrease), SESN2",[5]; [13],Increase
same,"Log 2 ratio between two groups, CAB39L",[5]; [13],−1.37
same,"Log 2 ratio between two groups, DEPTOR",[5]; [13],2.11
same,"Log 2 ratio between two groups, FECN",[5]; [13],−1.61
same,"Log 2 ratio between two groups, PRR5",[5]; [13],4.19
same,"Log 2 ratio between two groups, RNF152",[5]; [13],−1.61
same,"Log 2 ratio between two groups, RPS6KA1",[5]; [13],−1.22
same,"Log 2 ratio between two groups, RRAGD",[5]; [13],−2.27
same,"Log 2 ratio between two groups, SESN2",[5]; [13],1.41
same,number of genes showing a significant change in expression (expression ratio differs twice or more),[5]; [14],475 types of genes
same,overall expression change of genes of the WNT-mTOR signal pathway (Table 3),[5]; [14],changed toward suppressing the WNT-mTOR signal pathway
same,overall expression change of genes related to cytokines or chemokines involved in inflammation or natural immunity (Table 4),[5]; [14],changed toward suppressing expression of the cytokines or chemokines
same,survival rate equal to or more than that of idebenone (determined to be effective),[3],effective
"CN1C[C@@H]2c3ccccc3Oc3ccc(Cl)cc3[C@H]2C1 [Pharmaceutical agent No. 105, Asenapine maleate]",survival rate equal to or more than that of idebenone (determined to be effective),[1],effective
same,ability to pass through the blood-brain barrier,[4],known to be able to pass through the blood-brain barrier
same,survival rate equal to or more than that of idebenone (determined to be effective),[2],effective
same,survival rate equal to or more than that of idebenone (determined to be effective),[3],effective
CN1CCc2cccc3c2C1Cc1ccc(O)c(O)c1-3 (stereo not shown) [(I-1)],ability to pass through the blood-brain barrier,[4],known to be able to pass through the blood-brain barrier
"CN1CCN(CCCN2c3ccccc3Sc3ccc(Cl)cc32)CC1 [Pharmaceutical agent No. 35, Prochlorperazine dimaleate]",survival rate equal to or more than that of idebenone (determined to be effective),[1],effective
same,ability to pass through the blood-brain barrier,[4],known to be able to pass through the blood-brain barrier
same,survival rate equal to or more than that of idebenone (determined to be effective),[2],effective
same,survival rate equal to or more than that of idebenone (determined to be effective),[3],effective
"c1ccc2c(c1)Nc1ccccc1S2 [Pharmaceutical agent No. 129, Phenothiazine]",survival rate equal to or more than that of idebenone (determined to be effective),[1],effective
same,ability to pass through the blood-brain barrier,[4],known to be able to pass through the blood-brain barrier
same,survival rate equal to or more than that of idebenone (determined to be effective),[2],effective
same,survival rate equal to or more than that of idebenone (determined to be effective),[3],effective
CN1CC2c3ccccc3Oc3ccc(Cl)cc3C2C1 (stereo not shown) [(I-2)],ability to pass through the blood-brain barrier,[4],known to be able to pass through the blood-brain barrier
"CN(C)CCCN1c2ccccc2Sc2ccccc21 [Pharmaceutical agent No. 56, Promazine hydrochloride]",survival rate equal to or more than that of idebenone (determined to be effective),[1],effective
same,ability to pass through the blood-brain barrier,[4],known to be able to pass through the blood-brain barrier
same,survival rate equal to or more than that of idebenone (determined to be effective),[2],effective
same,survival rate equal to or more than that of idebenone (determined to be effective),[3],effective

# Reference: patent publication US11369615B2, “Agent for improving mitochondrial dysfunction, preventative or therapeutic agent for diseases or symptoms caused by mitochondrial dysfunction, and applications therefor” (JICHI MEDICAL UNIVERSITY, priority 2017, dated 2022)
